pIC50: −log10 of the molar value. Converted amounts (≈) assume the structure as drawn.

Assay [1] deals with Skin epidermis. Description: Antioxidant activity in Homo sapiens (human) epidermis cytosolic form assessed as inhibition of UV-induced nitric oxide production administered before UV induction at 48 hr by Griess assay. It counts as functional. In general terms: Griess reagent forms a coloured azo dye with nitrite.
Assay [2] concerns Stenotrophomonas maltophilia. Description: Bactericidal activity against Stenotrophomonas maltophilia clinical isolate. In kind it is functional.
In assay [3] the test system is SK-OV-3. Description: Downregulation of cyclin D1 expression in Homo sapiens (human) SKOV3 cells at 25 uM after 48 hr by Western blot analysis relative to control. It counts as functional. Background: A western blot detects proteins with antibodies after separation by electrophoresis.
The subject of assay [4] is Stenotrophomonas maltophilia. Description: Antibacterial activity against Stenotrophomonas maltophilia clinical isolate by broth macrodilution method. In kind it is functional.
Assay [5] deals with SK-OV-3. Description: Downregulation of CDK4 expression in Homo sapiens (human) SKOV3 cells at 25 uM after 48 hr by Western blot analysis relative to control. In kind it is functional.
For assay [6], the system named is SK-OV-3. Description: Downregulation of p21 expression in Homo sapiens (human) SKOV3 cells at 25 uM after 48 hr by Western blot analysis relative to control. It counts as functional.
Assay [7] relates to Dermis. Description: Antioxidant activity in Homo sapiens (human) dermis cytosolic form assessed as inhibition of UV-induced nitric oxide production administered before UV induction at 48 hr by Griess assay. In kind it is functional.
Assay [8] deals with Stenotrophomonas maltophilia. Description: Antibacterial activity against Stenotrophomonas maltophilia clinical isolate by agar dilution method. It counts as functional. (In general: In agar dilution, organisms are placed on agar that contains the substance at set levels.)
The test system of assay [9] is MDA-MB-468. Description: Cytotoxicity against ER-negative Homo sapiens (human) MDA-MB-468 cells assessed as inhibition of cell viability at 5 to 80 ug/ml after 24 to 72 hr by MTT assay. It counts as functional.
Assay [10] relates to Skin epidermis. Description: Antioxidant activity in Homo sapiens (human) epidermis assessed as inhibition of UV-induced hydrogen peroxide production administered before UV induction at 48 hr by DHR assay. It counts as functional.
Assay [11] relates to SK-OV-3. Description: Downregulation of Bcl-XL expression in Homo sapiens (human) SKOV3 cells at 25 uM after 48 hr by Western blot analysis relative to control. In kind it is functional.
The test system of assay [12] is SK-OV-3. Description: Downregulation of retinoblastoma expression in Homo sapiens (human) SKOV3 cells at 25 uM after 48 hr by Western blot analysis relative to control. It counts as functional.
For assay [13], the system named is Epidermal microsome. Description: Antioxidant activity in Homo sapiens (human) epidermal microsomal fractions assessed as inhibition of UV-induced lipid peroxidation measured at 6 to 48 hr. It counts as functional. Particulars: Skin epidermis, dose or concentration not given here.
Assay [14] deals with MDA-MB-468. Description: Cytotoxicity against ER-negative Homo sapiens (human) MDA-MB-468 cells assessed as growth inhibition at 5 to 80 ug/ml after 24 to 72 hr by MTT assay. In kind it is functional.
Assay [15] concerns SK-OV-3. Description: Downregulation of bax expression in Homo sapiens (human) SKOV3 cells at 25 uM after 48 hr by Western blot analysis relative to control. It counts as functional.
Assay [16] concerns Dermis. Description: Antioxidant activity in Homo sapiens (human) dermis assessed as inhibition of UV-induced hydrogen peroxide production administered before UV induction at 48 hr by DHR assay. It counts as functional.
Assay [17] has as its system PC-12. Description: Neuroprotective activity in rat PC12 cells assessed as increase in non amyloidogenic soluble form of amyloid precursor protein secretion at 0.1 to 10 uM after 2 hr by immunoblot analysis relative to control. It counts as functional.
The test system of assay [18] is SH-SY5Y. Description: Neuroprotective activity in Homo sapiens (human) SH-SY5Y cells assessed as increase in non amyloidogenic soluble form of amyloid precursor protein secretion at 0.1 to 10 uM after 2 hr by immunoblot analysis relative to control. In kind it is functional.
For assay [19], the target named is Urease subunit alpha/Urease subunit beta (Helicobacter pylori (strain ATCC 700392 / 26695) (Campylobacterpylori), UniProt P69996). Description: Inhibition of Helicobacter pylori urease. It counts as protein-complex assay.
Sequence of Urease subunit alpha/Urease subunit beta (P69996 whole entry): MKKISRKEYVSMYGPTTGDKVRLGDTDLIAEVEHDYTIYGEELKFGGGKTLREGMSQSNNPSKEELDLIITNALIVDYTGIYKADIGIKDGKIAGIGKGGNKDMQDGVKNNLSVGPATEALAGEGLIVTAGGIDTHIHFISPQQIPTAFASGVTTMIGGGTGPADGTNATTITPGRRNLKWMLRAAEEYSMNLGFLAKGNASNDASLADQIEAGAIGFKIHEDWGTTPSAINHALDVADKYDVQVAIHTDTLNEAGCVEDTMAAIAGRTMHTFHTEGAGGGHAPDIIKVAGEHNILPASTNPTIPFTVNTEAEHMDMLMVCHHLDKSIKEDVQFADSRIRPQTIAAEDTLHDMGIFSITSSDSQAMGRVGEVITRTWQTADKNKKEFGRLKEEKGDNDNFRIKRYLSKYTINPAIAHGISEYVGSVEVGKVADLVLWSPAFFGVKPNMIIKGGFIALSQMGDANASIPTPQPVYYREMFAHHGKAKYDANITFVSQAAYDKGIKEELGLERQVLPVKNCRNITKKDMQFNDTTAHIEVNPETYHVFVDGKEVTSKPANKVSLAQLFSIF
Sequence of Urease subunit alpha/Urease subunit beta (P14916 whole entry, further chain): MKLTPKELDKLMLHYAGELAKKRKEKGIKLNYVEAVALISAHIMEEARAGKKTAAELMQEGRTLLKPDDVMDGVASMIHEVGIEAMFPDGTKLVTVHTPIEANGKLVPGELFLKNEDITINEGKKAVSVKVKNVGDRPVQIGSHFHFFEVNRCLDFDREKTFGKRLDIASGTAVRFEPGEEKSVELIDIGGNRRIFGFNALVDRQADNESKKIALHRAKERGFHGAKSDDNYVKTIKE

On to `O=C(O[C@@H]1Cc2c(O)cc(O)cc2O[C@@H]1c1cc(O)c(O)c(O)c1)c1cc(O)c(O)c(O)c1` [EPIGALOCATECHIN GALLATE], for which the “inhibition (INH)” value in assay [1] was determined as 30%; in [7], 30%; in [9], 3%; in [10], 30%; in [16] it was 30%. Besides, the MIC50 (as a rule, the lowest concentration that inhibits either 50% of growth or 50% of the strains tested, depending on the study) in [2] came to 512 µg/mL (≈ 1120 µM); in assay [4], 512 µg/mL (≈ 1120 µM); in assay [8] it was 256 µg/mL (≈ 558 µM). Besides, the MIC90 (as a rule, an inhibitory concentration at the 90% level, which refers to growth in some studies and to a panel of isolates in others) in assay [2] amounted to 512 µg/mL (≈ 1120 µM); in [4], 512 µg/mL (≈ 1120 µM); in assay [8], 256 µg/mL (≈ 558 µM). The “fold change (FC)” value in [3], in [5], in assay [6], in assay [11], in assay [12] and in assay [15] was more than 2 throughout. Further, the “fold change (FC)” value in [17] and in [18] was 6 throughout. The inhibition (in general, the change of the read-out against control, counted positive when it falls) in [13] is 41%. Besides, the “growth inhibition (GI)” value in assay [14] is 15%.
In the case of `Oc1cc(O)c2c(c1)O[C@H](c1ccc(O)c(O)c1)[C@@H](O)C2` [CATECHIN], the negative-log IC50 (pIC50) (commonly the IC50 on a negative log10 scale, so that one unit is a factor of ten) in assay [19] is 4.35.
